Assay results as given in the NIST ThermoML archive (doi:10.1021/acs.jced.7b00995).

Tests used:
[1] = xn = mol fraction of the nth substance listed; conditions: Liquid, Vibrating tube method
[2] = 313.15 K, Liquid, Vibrating tube method

CCCCCCCCCCCCCCC [pentadecane] + O=C=O
mass density [kg/m3], [1]
Conditions | x2 = 0.376 | x2 = 0.562 | x2 = 0.757
313.15 K, 6.36 kPa | – | 779.4 | –
313.15 K, 6.91 kPa | 770 | – | –
313.15 K, 8.8 kPa | – | – | 798.3
313.15 K, 11.29 kPa | – | – | 804.2
313.15 K, 13.85 kPa | – | – | 810.2
313.15 K, 20.79 kPa | 784 | 796.8 | 828.1
313.15 K, 34.67 kPa | 795.8 | 808.8 | 843.2
313.15 K, 55.49 kPa | 809 | 829 | 867.8
313.15 K, 76.31 kPa | 825.4 | 841.5 | 885.9
363.15 K, 6.94 kPa | 725.3 | – | –
363.15 K, 10.73 kPa | – | 730.3 | –
363.15 K, 17.13 kPa | – | – | 738.8
363.15 K, 20.82 kPa | 744.5 | 745.5 | 749.2
363.15 K, 34.7 kPa | 754.3 | 768.8 | 780
363.15 K, 55.52 kPa | 775.6 | 784.7 | 812.3
363.15 K, 76.34 kPa | 787 | 800.8 | 831.7
410.15 K, 13.9 kPa | – | 686.5 | –
410.15 K, 13.91 kPa | 693.8 | – | –
410.15 K, 20.85 kPa | 702.6 | 701.8 | –
410.15 K, 21.95 kPa | – | – | 682.7
410.15 K, 27.79 kPa | – | – | 702
410.15 K, 34.73 kPa | 723.3 | 724.9 | 723.5
410.15 K, 55.55 kPa | 742.3 | 749.5 | 763.8
410.15 K, 76.37 kPa | 757.3 | 769.3 | 796.1

CCCCCCCCCCCCCCC [pentadecane]
[2]
Conditions | mass density [kg/m3]
100 kPa | 752.2
6910 kPa | 757.8
20790 kPa | 766.9
34670 kPa | 776.1
55490 kPa | 787.5
76930 kPa | 797.3
